Among the data in patent publication US20250059182A1, “SOS1 INHIBITORS” (Mirati Therapeutics, Inc., priority 2021, published 2025) are Ki and IC50 values, retold here.

Assay [1] deals with T1, recombinant human SOS1 polypeptide (amino acids 560-1049) (Homo sapiens, UniProt Q07889).
T1 construct: corresponding to amino acids 560-1049, expressed in E. Coli; made in house; host or cells: E. coli
T1 sequence (Q07889 560-1049): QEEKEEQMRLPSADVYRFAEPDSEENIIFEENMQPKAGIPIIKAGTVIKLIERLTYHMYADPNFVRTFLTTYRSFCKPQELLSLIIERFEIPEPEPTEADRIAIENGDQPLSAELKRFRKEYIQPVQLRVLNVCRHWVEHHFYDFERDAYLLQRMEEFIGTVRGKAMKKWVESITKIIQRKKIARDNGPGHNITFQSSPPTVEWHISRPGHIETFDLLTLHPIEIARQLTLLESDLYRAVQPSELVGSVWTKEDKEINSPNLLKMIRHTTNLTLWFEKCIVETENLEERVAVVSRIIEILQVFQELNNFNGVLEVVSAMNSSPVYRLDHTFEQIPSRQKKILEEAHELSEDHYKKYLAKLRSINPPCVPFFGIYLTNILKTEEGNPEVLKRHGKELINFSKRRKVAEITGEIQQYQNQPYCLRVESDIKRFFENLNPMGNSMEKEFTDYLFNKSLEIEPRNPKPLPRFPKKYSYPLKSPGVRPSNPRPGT
As to the kind of experiment: HTRF displacement assay: inhibition of labeled tracer binding to SOS1. The following applies: Table A, Morrison equation for competitive binding.
Experimental: The ability of a compound of Formula (I) to bind to SOS1 was measured using a HTRF displacement assay. […] After a 1-hour incubation at room temperature, the HTRF signal was measured using Clairostar plate reader (BMG Labtech) according to the manufacturer's instructions. Excitation filter EX-TR was used, and emission 1 was detected at 650-610 nm and emission 2 detected at 620-610 nm. The HTRF ratio was calculated using the formula: [emission 1/emission 2]*10000.
Background signals were calculated from well with a 10 μM inhibitor, known to inhibit 100% at that concentration. The background subtracted signals were converted to % binding relative to DMSO controls. Data were analyzed using XLFIT software (IDBS) using a Morrison equation for competitive binding and Ki's were generated compound of Formula (I).

The test system of the next assay is pERK in MKN1 cells. As to the kind of experiment: pERK inhibition, In-Cell Western (LI-COR Odyssey), MKN1 cells. In kind it is cell-based. The note with it: Homo sapiens, MKN-1, Table B; MKN1 or H358 cells (table does not say which); 0.5-1 hour incubation; read-out: IC50 (nM), pERK inhibition. In short, it runs like this: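 IC50 was fitted from % pERK inhibition, calculated as the GAPDH-normalised pERK signal of each well divided by the vehicle mean. Signal was imaged at 700 and 800 nm after fixation, methanol permeabilisation and dual antibody staining. Before fixation, MKN1 cells had received compound for about 0.5–1 h at 37 °C, top concentration 10 µM, nine 3-fold dilutions.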

The structures appear in SMILES notation.

What is called Ki is the equilibrium dissociation constant of an inhibitor or competing ligand from its target. The term IC50 denotes the concentration needed to halve the response being measured. In the case of `Cc1c(C#N)cccc1[C@@H](C)Nc1nnc(C)c2cnc(N3CC[C@H](O)C3)cc12` [Example 1-46, 3-((R)-1-((7-((S)-3-hydroxypyrrolidin-1-yl)-4-methylpyrido[3,4-d]pyridazin-1-yl)amino)ethyl)-2-methylbenzonitrile], the Ki in assay [1] was found to be 1.95 nM. Further, the IC50 in the assay with pERK in MKN1 cells is 71.3 nM.

Consider `Cc1c(C#N)cccc1[C@@H](C)Nc1nnc(C)c2cnc(N3CC[C@@H](O)C3)cc12` [Example 1-47, 3-((R)-1-((7-((R)-3-hydroxypyrrolidin-1-yl)-4-methylpyrido[3,4-d]pyridazin-1-yl)amino)ethyl)-2-methylbenzonitrile], for which the Ki in assay [1] is 1.33 nM. In addition, the IC50 in the assay on pERK in MKN1 cells was determined as 50.3 nM.

For `CO[C@H]1CCN(c2cc3c(N[C@H](C)c4cccc(C#N)c4C)nnc(C)c3cn2)C1` [Example 1-48, 3-((R)-1-((7-((S)-3-methoxypyrrolidin-1-yl)-4-methylpyrido[3,4-d]pyridazin-1-yl)amino)ethyl)-2-methylbenzonitrile], the Ki in assay [1] amounted to 2.02 nM. In addition, the IC50 with pERK in MKN1 cells turned out to be 39.2 nM.

`CO[C@@H]1CCN(c2cc3c(N[C@H](C)c4cccc(C#N)c4C)nnc(C)c3cn2)C1` [Example 1-49, 3-((R)-1-((7-((R)-3-methoxypyrrolidin-1-yl)-4-methylpyrido[3,4-d]pyridazin-1-yl)amino)ethyl)-2-methylbenzonitrile]: the Ki in assay [1] stood at 2.01 nM. Also, the IC50 in the assay on pERK in MKN1 cells was found to be 36 nM.

Take `Cc1c(C#N)cccc1[C@@H](C)Nc1nnc(C)c2cnc(N3CC[C@H](NS(C)(=O)=O)C3)cc12` [Example 1-50, N-((S)-1-(1-(((R)-1-(3-cyano-2-methylphenyl)ethyl)amino)-4-methylpyrido[3,4-d]pyridazin-7-yl)pyrrolidin-3-yl)methanesulfonamide]: in assay [1], the Ki amounted to 2.07 nM. The IC50 in the assay on pERK in MKN1 cells stood at 602 nM.

Consider `Cc1c(C#N)cccc1[C@@H](C)Nc1nnc(C)c2cnc(N(C)[C@H]3CCNC3)cc12` [Example 1-51, 2-methyl-3-((R)-1-((4-methyl-7-(methyl((S)-pyrrolidin-3-yl)amino)pyrido[3,4-d]pyridazin-1-yl)amino)ethyl)benzonitrile], for which the Ki in assay [1] was 0.867 nM. Moreover, in the assay on pERK in MKN1 cells, the IC50 came out at 275 nM.

For the molecule `Cc1c(C#N)cccc1[C@@H](C)Nc1nnc(C)c2cnc(N(C)[C@@H]3CCNC3)cc12` [Example 1-52, 2-methyl-3-((R)-1-((4-methyl-7-(methyl((R)-pyrrolidin-3-yl)amino)pyrido[3,4-d]pyridazin-1-yl)amino)ethyl)benzonitrile], the Ki in assay [1] came out at 1.11 nM. Further, the IC50 in the assay with pERK in MKN1 cells was 457 nM.

For the molecule `Cc1c(C#N)cccc1[C@@H](C)Nc1nnc(C)c2cnc(N(C)[C@H]3CCCNC3)cc12` [Example 1-53, 2-methyl-3-((R)-1-((4-methyl-7-(methyl((S)-piperidin-3-yl)amino)pyrido[3,4-d]pyridazin-1-yl)amino)ethyl)benzonitrile], in assay [1], the Ki came out at 0.853 nM. In addition, the IC50 in the assay on pERK in MKN1 cells turned out to be 210 nM.

For `Cc1c(C#N)cccc1[C@@H](C)Nc1nnc(C)c2cnc(N(C)[C@@H]3CCCNC3)cc12` [Example 1-54, 2-methyl-3-((R)-1-((4-methyl-7-(methyl((R)-piperidin-3-yl)amino)pyrido[3,4-d]pyridazin-1-yl)amino)ethyl)benzonitrile], the Ki in assay [1] is 1.2 nM. Further, the IC50 with pERK in MKN1 cells amounted to 142 nM.

As to `Cc1c(C#N)cccc1[C@@H](C)Nc1nnc(C)c2cnc(N(C)C[C@@H]3CCCN3)cc12` [Example 1-55, 2-methyl-3-((R)-1-((4-methyl-7-(methyl(((S)-pyrrolidin-2-yl)methyl)amino)pyrido[3,4-d]pyridazin-1-yl)amino)ethyl)benzonitrile], the Ki in assay [1] amounted to 2.18 nM. The IC50 in the assay on pERK in MKN1 cells was 290 nM.

As to `Cc1c(C#N)cccc1[C@@H](C)Nc1nnc(C)c2cnc(N(C)C[C@H]3CCCN3)cc12` [Example 1-56, 2-methyl-3-((R)-1-((4-methyl-7-(methyl(((R)-pyrrolidin-2-yl)methyl)amino)pyrido[3,4-d]pyridazin-1-yl)amino)ethyl)benzonitrile], the Ki in assay [1] is 2.15 nM. Further, the IC50 in the assay with pERK in MKN1 cells is 246 nM.

Turning to `Cc1c(C#N)cccc1[C@@H](C)Nc1nnc(C)c2cnc(N(C)C[C@@H]3CCCN3C)cc12` [Example 1-57, 2-methyl-3-((R)-1-((4-methyl-7-(methyl(((S)-1-methylpyrrolidin-2-yl)methyl)amino)pyrido[3,4-d]pyridazin-1-yl)amino)ethyl)benzonitrile], the Ki in assay [1] was 1.59 nM. The IC50 with pERK in MKN1 cells was 39.2 nM.

For `Cc1c(C#N)cccc1[C@@H](C)Nc1nnc(C)c2cnc(N(C)C[C@H]3CCCN3C)cc12` [Example 1-58, 2-methyl-3-((R)-1-((4-methyl-7-(methyl(((R)-1-methylpyrrolidin-2-yl)methyl)amino)pyrido[3,4-d]pyridazin-1-yl)amino)ethyl)benzonitrile], the Ki in assay [1] amounted to 1.89 nM. In addition, in the assay with pERK in MKN1 cells, the half-inhibitory concentration (IC50) worked out at 73.8 nM.

Regarding `COCCN1CC2(C1)CN(c1cc3c(N[C@H](C)c4cccc(C#N)c4C)nnc(C)c3cn1)C2` [Example 1-59, (R)-3-(1-((7-(6-(2-methoxyethyl)-2,6-diazaspiro[3.3]heptan-2-yl)-4-methylpyrido[3,4-d]pyridazin-1-yl)amino)ethyl)-2-methylbenzonitrile], in assay [1], the Ki was 0.977 nM. The IC50 in the assay on pERK in MKN1 cells worked out at 37.6 nM.

Regarding `CCOCCN1CC2(C1)CN(c1cc3c(N[C@H](C)c4cccc(C#N)c4C)nnc(C)c3cn1)C2` [Example 1-60, (R)-3-(1-((7-(6-(2-ethoxyethyl)-2,6-diazaspiro[3.3]heptan-2-yl)-4-methylpyrido[3,4-d]pyridazin-1-yl)amino)ethyl)-2-methylbenzonitrile], in assay [1], the Ki amounted to 0.93 nM. Also, the IC50 with pERK in MKN1 cells came out at 39.9 nM.

Regarding `Cc1c(C#N)cccc1[C@@H](C)Nc1nnc(C)c2cnc(N3CC4(CN(CCO)C4)C3)cc12` [Example 1-61, (R)-3-(1-((7-(6-(2-hydroxyethyl)-2,6-diazaspiro[3.3]heptan-2-yl)-4-methylpyrido[3,4-d]pyridazin-1-yl)amino)ethyl)-2-methylbenzonitrile], in assay [1], the Ki was determined as 0.797 nM. Also, the IC50 with pERK in MKN1 cells was found to be 1340 nM.

For `Cc1c(C#N)cccc1[C@@H](C)Nc1nnc(C)c2cnc(N3CC4(C3)CN(C(C)C)C4)cc12` [Example 1-62, (R)-3-(1-((7-(6-isopropyl-2,6-diazaspiro[3.3]heptan-2-yl)-4-methylpyrido[3,4-d]pyridazin-1-yl)amino)ethyl)-2-methylbenzonitrile], the Ki in assay [1] was 0.545 nM. Besides, the IC50 in the assay with pERK in MKN1 cells amounted to 37.6 nM.

For `Cc1c(C#N)cccc1[C@@H](C)Nc1nnc(C)c2cnc(N3CC4(CC(N(C)C)C4)C3)cc12` [Example 1-63, (R)-3-(1-((7-(6-(dimethylamino)-2-azaspiro[3.3]heptan-2-yl)-4-methylpyrido[3,4-d]pyridazin-1-yl)amino)ethyl)-2-methylbenzonitrile], in assay [1], the Ki came to 0.664 nM. In the assay on pERK in MKN1 cells, the IC50 worked out at 48.9 nM.

In the case of `Cc1c([C@@H](C)Nc2nnc(C)c3cnc(N(C)[C@H]4CCNC4)cc23)cccc1C(F)(F)F` [Example 1-64, N^7,4-dimethyl-N^1-((R)-1-(2-methyl-3-(trifluoromethyl)phenyl)ethyl)-N^7-((S)-pyrrolidin-3-yl)pyrido[3,4-d]pyridazine-1,7-diamine], the Ki in assay [1] was 0.246 nM. For the same molecule, in the assay with pERK in MKN1 cells, the IC50 was 66.3 nM.

As to `Cc1nnc(N[C@H](C)c2cccc(C(F)(F)F)c2F)c2cc(N(C)[C@H]3CCNC3)ncc12` [Example 1-65, N^1-((R)-1-(2-fluoro-3-(trifluoromethyl)phenyl)ethyl)-N^7,4-dimethyl-N^7-((S)-pyrrolidin-3-yl)pyrido[3,4-d]pyridazine-1,7-diamine], in assay [1], the Ki came to 0.505 nM. In the assay on pERK in MKN1 cells, the IC50 is 49.7 nM.

Consider `Cc1c([C@@H](C)Nc2nnc(C)c3cnc(N4CC5(CC(N(C)C)C5)C4)cc23)cccc1C(F)(F)F` [Example 1-66, (R)-7-(6-(dimethylamino)-2-azaspiro[3.3]heptan-2-yl)-4-methyl-N-(1-(2-methyl-3-(trifluoromethyl)phenyl)ethyl)pyrido[3,4-d]pyridazin-1-amine], for which the Ki in assay [1] was 0.106 nM. In the assay on pERK in MKN1 cells, the IC50 is 32.4 nM.

Turning to `Cc1c(C#N)cccc1[C@@H](C)Nc1nnc(C)c2cnc(N3CCN(C)C(C)(C)C3)cc12` [Example 1-69, (R)-2-methyl-3-(1-((4-methyl-7-(3,3,4-trimethylpiperazin-1-yl)pyrido[3,4-d]pyridazin-1-yl)amino)ethyl)benzonitrile], in assay [1], the Ki was 0.849 nM. In the assay on pERK in MKN1 cells, the IC50 came out at 39 nM.

Turning to `Cc1c(C#N)cccc1[C@@H](C)Nc1nnc(C)c2cnc(N3CCN(C(C)C)CC3)cc12` [Example 1-70, (R)-3-(1-((7-(4-isopropylpiperazin-1-yl)-4-methylpyrido[3,4-d]pyridazin-1-yl)amino)ethyl)-2-methylbenzonitrile], the Ki in assay [1] is 0.927 nM. In the assay on pERK in MKN1 cells, the IC50 was 44.2 nM.

`Cc1c(C#N)cccc1[C@@H](C)Nc1nnc(C)c2cnc(N(C)[C@H]3CCOC3)cc12` [Example 1-71, 2-methyl-3-((R)-1-((4-methyl-7-(methyl((S)-tetrahydrofuran-3-yl)amino)pyrido[3,4-d]pyridazin-1-yl)amino)ethyl)benzonitrile]: the inhibition constant (Ki) in assay [1] worked out at 4.69 nM. Further, the IC50 in the assay on pERK in MKN1 cells came to 47.3 nM.
